The test system of this assay is PC3 cells. The experiment in a line: NAMPT Cell Proliferation Assay. Type of assay: cell-based. The following applies: Homo sapiens, PC-3, 120 h, 5 days incubation, cell viability by Cell Titer Glo. The gist of the method:
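Five-day CellTiter-Glo viability readout in PC3 cells grown in RPMI/10% heat-inactivated FBS. Compounds added after overnight attachment as a 10-fold dilution series, […]. Percent inhibition fitted to sigmoidal dose-response to derive IC50.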
As a reminder, the IC50 is the concentration needed to halve the response being measured. For the molecule `O=C(Nc1ccc(OC2CCN(C(=O)Cc3ccccc3F)CC2)cc1)C1CN(c2ccnnc2)C1` [Example 308, N-[4-({1-[(2-fluorophenyl)acetyl]piperidin-4-yl}oxy)phenyl]-1-(pyridazin-4-yl)azetidine-3-carboxamide], the IC50 was 61.4 nM.
`O=C(Nc1ccc(C2(F)CCN(C(=O)c3ccccc3)CC2)cc1)C1CN(c2cccnn2)C1` [Example 863, N-[4-(1-benzoyl-4-fluoropiperidin-4-yl)phenyl]-1-(pyridazin-3-yl)azetidine-3-carboxamide] yielded an IC50 of 5.67 nM.
The value for `O=C(Nc1ccc(OC2CCN(C(=O)c3ccsc3)CC2)cc1)C1CN(c2cccnn2)C1` [Example 223, 1-(pyridazin-3-yl)-N-(4-{[1-(thiophen-3-ylcarbonyl)piperidin-4-yl]oxy}phenyl)azetidine-3-carboxamide] was 5.5 nM.
The value for `O=C(Nc1ccc(C2CCN(C(=O)CC3CCCCC3)CC2)cc1)C1CN(c2cccnc2)C1` [Example 119, N-{4-[1-(cyclohexylacetyl)piperidin-4-yl]phenyl}-1-(pyridin-3-yl)azetidine-3-carboxamide] was 0.19 nM; that for `O=C(Nc1ccc(S(=O)(=O)C2CCN(C(=O)c3cc(F)cc(F)c3)CC2)cc1)C1CN(c2cccnn2)C1` [Example 593, N-(4-{[1-(3,5-difluorobenzoyl)piperidin-4-yl]sulfonyl}phenyl)-1-(pyridazin-3-yl)azetidine-3-carboxamide] was 63.4 nM; that for `O=C(Nc1ccc(C2CCN(C(=O)CC3CC3)CC2)cc1)C1CN(c2cccnn2)C1` [Example 427, N-{4-[1-(cyclopropylacetyl)piperidin-4-yl]phenyl}-1-(pyridazin-3-yl)azetidine-3-carboxamide] was 2.03 nM.
The value for `CC(C)(C)C(=O)N1CCC(c2ccc(NC(=O)[C@H]3CCN(c4cccnn4)C3)cc2)CC1` [Example 313, (3S)—N-{4-[1-(2,2-dimethylpropanoyl)piperidin-4-yl]phenyl}-1-(pyridazin-3-yl)pyrrolidine-3-carboxamide] was 6.03 nM; that for `O=C(Nc1ccc(C2CCN(C(=O)CCC(F)(F)F)CC2)cc1)C1CCN(c2cccnn2)CC1` [Example 628, 1-(pyridazin-3-yl)-N-{4-[1-(4,4,4-trifluorobutanoyl)piperidin-4-yl]phenyl}piperidine-4-carboxamide] was above 10000 nM.
Regarding `O=C(Nc1ccc(O[C@@H]2CCN(C(=O)C3CC3)C2)cc1)C1CN(c2cccnn2)C1` [Example 502, N-(4-{[(3R)-1-(cyclopropylcarbonyl)pyrrolidin-3-yl]oxy}phenyl)-1-(pyridazin-3-yl)azetidine-3-carboxamide], the IC50 amounted to 4.74 nM.
The molecule `O=C(Nc1ccc(C2CCN(C(=O)c3ccccc3F)CC2)cc1)[C@H]1CCN(c2cccnn2)C1` [Example 637, (3S)-N-{4-[1-(2-fluorobenzoyl)piperidin-4-yl]phenyl}-1-(pyridazin-3-yl)pyrrolidine-3-carboxamide] showed an IC50 of 1.24 nM.
As to `O=C(Nc1ccc(C2CCN(C(=O)c3cc(F)cc(F)c3)CC2)cc1)[C@H]1CCN(c2cccnn2)C1` [Example 659, (3S)-N-{4-[1-(3,5-difluorobenzoyl)piperidin-4-yl]phenyl}-1-(pyridazin-3-yl)pyrrolidine-3-carboxamide], the IC50 turned out to be 11.2 nM.
As for `CC(=O)N[C@@H](CC(C)C)C(=O)N1CCC(c2ccc(NC(=O)C3CN(c4cccnc4)C3)cc2)CC1` [Example 120, N-{4-[1-(N-acetyl-L-leucyl)piperidin-4-yl]phenyl}-1-(pyridin-3-yl)azetidine-3-carboxamide], the IC50 worked out at 0.23 nM.
In turn, `O=C(Nc1ccc(C2CCN(C(=O)CCN3CCOCC3)CC2)cc1)C1CN(c2cccnc2)C1` [Example 124, N-(4-{1-[3-(morpholin-4-yl)propanoyl]piperidin-4-yl}phenyl)-1-(pyridin-3-yl)azetidine-3-carboxamide] came in with an IC50 of 1.44 nM.
The value for `O=C(Nc1ccc(O[C@@H]2CCN(C(=O)Cc3ccc(OC(F)(F)F)cc3)C2)cc1)C1CN(c2ccnnc2)C1` [Example 447, 1-(pyridazin-4-yl)-N-(4-{[(3R)-1-{[4-(trifluoromethoxy)phenyl]acetyl}pyrrolidin-3-yl]oxy}phenyl)azetidine-3-carboxamide] was 903 nM.
Then `Cc1ncccc1N1CC(C(=O)Nc2ccc(C3CCN(C(=O)c4ccc(Cl)cc4)CC3)cc2)C1` [Example 156, N-{4-[1-(4-chlorobenzoyl)piperidin-4-yl]phenyl}-1-(2-methylpyridin-3-yl)azetidine-3-carboxamide], with 712 nM.
`O=C(Nc1ccc(C2CCN(C(=O)c3cccs3)CC2)cc1)C1CN(c2cccnc2)C1` [Example 127, 1-(pyridin-3-yl)-N-{4-[1-(thiophen-2-ylcarbonyl)piperidin-4-yl]phenyl}azetidine-3-carboxamide] displayed an IC50 of 0.14 nM.
In turn, `Cc1ccccc1C(=O)N1CCC(c2ccc(C(=O)NC3CN(c4cccnn4)C3)s2)CC1` [Example 812, 5-[1-(2-methylbenzoyl)piperidin-4-yl]-N-[1-(pyridazin-3-yl)azetidin-3-yl]thiophene-2-carboxamide] gave a half-maximal inhibitory concentration (IC50) of 10.2 nM.
Consider `O=C(Nc1ccc(C2CCN(C(=O)CC[N+](=O)[O-])CC2)cc1)C1CN(c2cccnn2)C1` [Example 336, N-{4-[1-(3-nitropropanoyl)piperidin-4-yl]phenyl}-1-(pyridazin-3-yl)azetidine-3-carboxamide], for which half-maximal inhibition (IC50) was put at 8.26 nM.
Then `CC[C@H](C)C(=O)N1CCC(c2ccc(NC(=O)C3CN(c4ccnnc4)C3)cc2)CC1` [Example 143, N-(4-{1-[(2S)-2-methylbutanoyl]piperidin-4-yl}phenyl)-1-(pyridazin-4-yl)azetidine-3-carboxamide], with 4.96 nM; and `CCCCC(=O)N1CCC(c2ccc(NC(=O)C3CN(c4cccnn4)C3)cc2)CC1` [Example 318, N-[4-(1-pentanoylpiperidin-4-yl)phenyl]-1-(pyridazin-3-yl)azetidine-3-carboxamide], with 2.72 nM.
Regarding `CCC(C)(C)C(=O)N1CCC(c2ccc(NC(=O)C3CN(c4cccnc4)C3)cc2)CC1` [Example 133, N-{4-[1-(2,2-dimethylbutanoyl)piperidin-4-yl]phenyl}-1-(pyridin-3-yl)azetidine-3-carboxamide], the IC50 worked out at 0.62 nM.
The value for `Cc1cccc(C(=O)N2CCC(S(=O)(=O)c3ccc(NC(=O)C4CN(c5cccnn5)C4)cc3)CC2)c1` [Example 580, N-(4-{[1-(3-methylbenzoyl)piperidin-4-yl]sulfonyl}phenyl)-1-(pyridazin-3-yl)azetidine-3-carboxamide] was 78 nM; that for `O=C(Nc1ccc(OC2CCN(C(=O)c3ccccc3)CC2)cc1)[C@H]1CCN(c2cccnn2)C1` [Example 799, (3S)-N-{4-[(1-benzoylpiperidin-4-yl)oxy]phenyl}-1-(pyridazin-3-yl)pyrrolidine-3-carboxamide] was 25.5 nM; that for `O=C(Nc1ccc(OC2CCN(C(=O)C3CC3)CC2)cc1)C1CN(c2cccnn2)C1` [Example 251, N-(4-{[1-(cyclopropylcarbonyl)piperidin-4-yl]oxy}phenyl)-1-(pyridazin-3-yl)azetidine-3-carboxamide] was 7.87 nM.
In turn, `CCCCN1CCC(c2ccc(NC(=O)C3CN(c4cccnc4)C3)cc2)CC1` [Example 91, N-[4-(1-butylpiperidin-4-yl)phenyl]-1-(pyridin-3-yl)azetidine-3-carboxamide] gave an IC50 of 59.9 nM.
As to `O=C(Nc1ccc(C2CC3CCC(C2)N3C(=O)c2ccccc2)cc1)C1CN(c2cccnn2)C1` (stereo not shown) [Example 842, N-[4-(8-benzoyl-8-azabicyclo[3.2.1]oct-3-yl)phenyl]-1-(pyridazin-3-yl)azetidine-3-carboxamide], the IC50 was 0.665 nM.
Then `Cc1ncccc1N1CC(C(=O)Nc2ccc(C3CCN(C(=O)C(C)C)CC3)cc2)C1` [Example 29, N-{4-[1-(2-methylpropanoyl)piperidin-4-yl]phenyl}-1-(2-methylpyridin-3-yl)azetidine-3-carboxamide], with 135 nM; and `O=C(Nc1ccc(C2CCN(C(=O)C3CCOCC3)CC2)cc1)C1CN(c2ccnnc2)C1` [Example 146, 1-(pyridazin-4-yl)-N-{4-[1-(tetrahydro-2H-pyran-4-ylcarbonyl)piperidin-4-yl]phenyl}azetidine-3-carboxamide], with 70.7 nM.
The value for `O=C(Nc1ccc(C2CCN(C(=O)c3cc(Cl)ccc3Cl)CC2)cc1)[C@H]1CCN(c2cccnn2)C1` [Example 695, (3S)-N-{4-[1-(2,5-dichlorobenzoyl)piperidin-4-yl]phenyl}-1-(pyridazin-3-yl)pyrrolidine-3-carboxamide] was 6.16 nM; that for `O=C(Nc1ccc(C2CCN(C(=O)CC3CC3)CC2)cc1)[C@H]1CCN(c2cccnn2)C1` [Example 643, (3S)-N-{4-[1-(cyclopropylacetyl)piperidin-4-yl]phenyl}-1-(pyridazin-3-yl)pyrrolidine-3-carboxamide] was 8.46 nM; that for `O=C(Nc1ccc(S(=O)(=O)C2CCN(C(=O)c3ccccc3)CC2)cc1)C1CN(c2cccnn2)C1` [Example 574, N-{4-[(1-benzoylpiperidin-4-yl)sulfonyl]phenyl}-1-(pyridazin-3-yl)azetidine-3-carboxamide] was 55.3 nM.
For the molecule `CCCC(C)C(=O)N1CCC(c2ccc(NC(=O)[C@H]3CCN(c4cccnn4)C3)cc2)CC1` (stereo partly drawn) [Example 670, (3S)-N-{4-[1-(2-methylpentanoyl)piperidin-4-yl]phenyl}-1-(pyridazin-3-yl)pyrrolidine-3-carboxamide], the IC50 came to 8.53 nM.
Then `O=C(Nc1ccc(OC2CCN(C(=O)CC3CCOCC3)CC2)cc1)C1CN(c2cccnc2C(F)(F)F)C1` [Example 3, N-(4-{[1-(tetrahydro-2H-pyran-4-ylacetyl)piperidin-4-yl]oxy}phenyl)-1-[2-(trifluoromethyl)pyridin-3-yl]azetidine-3-carboxamide], with 7330 nM; and `C#CCCC(=O)N1CCC(c2ccc(NC(=O)[C@H]3CCN(c4cccnn4)C3)cc2)CC1` [Example 713, (3S)-N-{4-[1-(pent-4-ynoyl)piperidin-4-yl]phenyl}-1-(pyridazin-3-yl)pyrrolidine-3-carboxamide], with 9.99 nM.

The values are drawn from patent publication US20130303509A1, “NAMPT INHIBITORS” (AbbVie Inc., priority 2012, published 2013).
